Values after ≈ are worked out from the molar mass of the structure shown.
What was measured:
Assay type in all cases: cell-based
[1] = test system: E. coli (wild-type) BW25113; test: Broth microdilution MIC, E. coli wild-type; conditions: Escherichia coli, iron-depleted CAMHB, OD600 ≤0.15, read-out: MIC (μg/mL) Gram-negative EC
Experimental: (§1) The test compounds including vancomycin hydrochloride were supplied as a 6.4 mg/mL solution in 100% dimethyl sulfoxide (DMSO) aliquoted into individual wells of a 96-well plate (50 μL per well). […] Standardized inocula were added to the MIC test plates, which were incubated for the prescribed times at 35° C. The N. gonorrhoeae strain was incubated in an atmosphere containing 5% CO2.
(§2) The final optical density of each well at 600 nm was measured using a Tecan Spark plate reader. The compound concentration versus OD600 data were then curve fit using custom software. An MIC value was defined as the lowest compound concentration that led to an OD600 value≤0.15 for the E. coli, K. pneumoniae, P. aeruginosa, A. baumannii, or S. aureus strains. For the N. gonorrhoeae strain, an OD600 value≤0.19 was used as a cutoff to define an MIC value; this higher cut-off value was required because the N. gonorrhoeae MIC plates were covered with plastic seals that increased the background OD600 value.
(§3) JMI Laboratories followed current CLSI quality assurance practices when performing the susceptibility tests. MIC values were validated by concurrently testing the CLSI-recommended ATCC QC reference strains S. aureus ATCC 29213 and K. pneumoniae ATCC 700603. The inoculum density during susceptibility testing was monitored by bacterial colony counts. Where applicable, QC ranges for tested reference strains were those ranges approved or published by CLSI for testing in CAMHB. […] Importantly, the CLSI reference method for testing N. gonorrhoeae is the agar dilution MIC method, which was not used here. Thus, CLSI MIC QC ranges for N. gonorrhoeae could not be applied to the antimicrobials studied here.
(§4) Abbreviations: EC, E. coli (wild-type) BW25113; EC efflux^−, E. coli (tolC) JW5503-1; KPN, K. pneumoniae ATCC 700603; PSA, P. aeruginosa PAO1; PSA efflux^−, P. aeruginosa (multi-pump-gene mutant) PAM1626; ACB, A. baumannii JMI #1186154; GC, N. gonorrhoeae WHO-Z; SA, S. aureus ATCC 29213. Broth microdilution MIC values were measured in iron-depleted CAMHB for all strains except for GC, which was tested in fastidious broth.

E. coli (tolC) JW5503-1 = test: Broth microdilution MIC, E. coli efflux-deficient (tolC); conditions: Escherichia coli, read-out: MIC (μg/mL) Gram-negative EC Efflux
Experimental: as §1, §2, §3, §4

[2] = test system: K. pneumoniae ATCC 700603; test: Broth microdilution MIC, K. pneumoniae; conditions: Klebsiella pneumoniae, ATCC700603, read-out: MIC (μg/mL) Gram-negative KPN
Experimental: as §1, §2, §3, §4

P. aeruginosa PAO1 = test: Broth microdilution MIC, P. aeruginosa; conditions: Pseudomonas aeruginosa, iron-depleted CAMHB, OD600 ≤0.15, read-out: MIC (μg/mL) Gram-negative PSA
Experimental: as §1, §2, §3, §4

[3] = test system: P. aeruginosa (multi-pump-gene mutant) PAM1626; test: Broth microdilution MIC, P. aeruginosa efflux-deficient; conditions: Pseudomonas aeruginosa, read-out: MIC (μg/mL) Gram-negative PSA Efflux
Experimental: as §1, §2, §3, §4

[4] = test system: A. baumannii JMI #1186154; test: Broth microdilution MIC, A. baumannii; conditions: Acinetobacter baumannii, iron-depleted CAMHB, OD600 ≤0.15, read-out: MIC (μg/mL) Gram-negative ACB
Experimental: as §1, §2, §3, §4

N. gonorrhoeae WHO-Z = test: Broth microdilution MIC, N. gonorrhoeae; conditions: Neisseria gonorrhoeae, read-out: MIC (μg/mL) Gram-negative GC
Experimental: as §1, §2, §3, §4

S. aureus ATCC 29213 = test: Broth microdilution MIC, S. aureus; conditions: Staphylococcus aureus, ATCC29213, iron-depleted CAMHB, OD600 ≤0.15, read-out: MIC (μg/mL) Gram positive SA
Experimental: as §1, §2, §3, §4

| Compound | MIC [1] [µg/mL] | MIC (E. coli (tolC) JW5503-1) [µg/mL] | MIC [2] [µg/mL] | MIC (P. aeruginosa PAO1) [µg/mL] | MIC [3] [µg/mL] | MIC [4] [µg/mL] | MIC (N. gonorrhoeae WHO-Z) [µg/mL] | MIC (S. aureus ATCC 29213) [µg/mL] |
| --- | --- | --- | --- | --- | --- | --- | --- | --- |
| CNC(CC(C)C)C(=O)NC1C(=O)NC(CC(N)=O)C(=O)NC2C(=O)NC3C(=O)NC(C(=O)N[C@H](C(=O)NCCCCNC(=O)c4cc(=O)c(O)c[nH]4)c4cc(O)cc(O)c4-c4cc3ccc4O)C(O)c3ccc(c(Cl)c3)Oc3cc2cc(c3OC2OC(CO)C(O)C(O)C2OC2CC(C)(N)C(O)C(C)O2)Oc2ccc(cc2Cl)C1O (stereo in doubt) [Compound 21] | 32 (≈ 19.3 µM) | 64 (≈ 38.6 µM) | > 64 | 64 (≈ 38.6 µM) | > 64 | 32 (≈ 19.3 µM) | > 64 | 32 (≈ 19.3 µM) |
| CNC(CC(C)C)C(=O)NC1C(=O)NC(CC(N)=O)C(=O)NC2C(=O)NC3C(=O)NC(C(=O)N[C@H](C(=O)NCCCN4C(=O)c5cc(O)c(O)cc5C4=O)c4cc(O)cc(O)c4-c4cc3ccc4O)C(O)c3ccc(c(Cl)c3)Oc3cc2cc(c3OC2OC(CO)C(O)C(O)C2OC2CC(C)(N)C(O)C(C)O2)Oc2ccc(cc2Cl)C1O (stereo partly drawn) [Compound 1] | 64 (≈ 38.4 µM) | 64 (≈ 38.4 µM) | > 64 | > 64 | > 64 | 32 (≈ 19.2 µM) | > 64 | 8 (≈ 4.8 µM) |
| CNC(CC(C)C)C(=O)NC1C(=O)NC(CC(N)=O)C(=O)NC2C(=O)NC3C(=O)NC(C(=O)N[C@H](C(=O)O)c4cc(O)c(CNCCCCNC(=O)c5ccc(O)c(O)c5Cl)c(O)c4-c4cc3ccc4O)C(O)c3ccc(c(Cl)c3)Oc3cc2cc(c3OC2OC(CO)C(O)C(O)C2OC2CC(C)(N)C(O)C(C)O2)Oc2ccc(cc2Cl)C1O (stereo partly drawn) [Compound 23] | 64 (≈ 37.2 µM) | > 64 | > 64 | > 64 | > 64 | 8 (≈ 4.65 µM) | > 64 | 64 (≈ 37.2 µM) |
| CNC(CC(C)C)C(=O)N[C@H]1C(=O)N[C@@H](CC(N)=O)C(=O)N[C@H]2C(=O)N[C@H]3C(=O)N[C@H](C(=O)N[C@@H](C(=O)NCc4cn(CCNC(=O)c5ccc(O)c(O)c5Cl)nn4)c4cc(O)cc(O)c4-c4cc3ccc4O)[C@H](O)c3ccc(c(Cl)c3)Oc3cc2cc(c3OC2O[C@H](CO)C(O)C(O)[C@H]2O[C@H]2CC(C)(N)[C@H](O)C(C)O2)Oc2ccc(cc2Cl)[C@H]1O (stereo partly drawn) [Compound 19] | > 64 | > 64 | > 64 | > 64 | > 64 | 1 (≈ 0.574 µM) | > 64 | 8 (≈ 4.59 µM) |
| CNC(CC(C)C)C(=O)N[C@H]1C(=O)N[C@@H](CC(N)=O)C(=O)N[C@H]2C(=O)N[C@H]3C(=O)N[C@H](C(=O)N[C@@H](C(=O)NCCOCCNC(=O)c4ccc(O)c(O)c4Cl)c4cc(O)cc(O)c4-c4cc3ccc4O)[C@H](O)c3ccc(c(Cl)c3)Oc3cc2cc(c3OC2O[C@H](CO)C(O)C(O)[C@H]2O[C@H]2CC(C)(N)[C@H](O)C(C)O2)Oc2ccc(cc2Cl)[C@H]1O (stereo in doubt) [Compound 10] | 16 (≈ 9.38 µM) | > 64 | > 64 | > 64 | > 64 | 2 (≈ 1.17 µM) | > 64 | 4 (≈ 2.34 µM) |
| CN[C@H](CC(C)C)C(=O)N[C@H]1C(=O)N[C@@H](CC(N)=O)C(=O)N[C@H]2C(=O)N[C@H]3C(=O)N[C@H](C(=O)N[C@H](C(=O)NCCCNC(=O)c4cccc(O)c4O)c4cc(O)cc(O)c4-c4cc3ccc4O)[C@H](O)c3ccc(c(Cl)c3)Oc3cc2cc(c3O[C@@H]2O[C@H](CO)C(O)C(O)[C@H]2O[C@H]2CC(C)(N)[C@H](O)[C@H](C)O2)Oc2ccc(cc2Cl)[C@H]1O (stereo partly drawn) [Compound 12] | 64 (≈ 39 µM) | 64 (≈ 39 µM) | > 64 | > 64 | > 64 | 4 (≈ 2.44 µM) | > 64 | 2 (≈ 1.22 µM) |
